Results on 30 compounds are retold here after patent US8026247B2, “Bicyclic amides as kinase inhibitors” (Novartis AG, priority 2004, dated 2011).

As usually defined, the melting point is the temperature of the solid-liquid transition. As for `CNc1cc(Oc2ccc3c(c2)OCCN3C(=O)Nc2ccc(C)c(C(F)(F)F)c2)ncn1` [Example 8, 7-(6-Methylamino-pyrimidin-4-yloxy)-2,3-dihydro-benzo[1,4]oxazine-4-carboxylic acid (4-methyl-3-trifluoromethyl-phenyl)-amide], the melting point fell in the range of 180 to 182 °C.
Turning to `CNc1cc(Oc2ccc3c(c2)OCCN3C(=O)Nc2cccc(C(F)(F)F)c2)ncn1` [Example 9, 7-(6-Methylamino-pyrimidin-4-yloxy)-2,3-dihydro-benzo[1,4]oxazine-4-carboxylic acid (3-trifluoromethyl-phenyl)-amide], the melting point turned out to be 180 °C.
The compound `Nc1nccc(Oc2ccc3c(c2)OCCN3C(=O)Nc2cccc(C(F)(F)F)c2)n1` [Example 10, 7-(2-Amino-pyrimidin-4-yloxy)-2,3-dihydro-benzo[1,4]oxazine-4-carboxylic acid (3-trifluoromethyl-phenyl)-amide] came in with a melting point of 161 to 163 °C.
As for `Nc1nc(Cl)cc(Oc2ccc3c(C(=O)Nc4cccc(C(F)(F)F)c4)cccc3c2)n1` [Example 13, 6-(2-Amino-6-chloro-pyrimidin-4-yloxy)-naphthalene-1-carboxylic acid (3-trifluoromethyl-phenyl)-amide], the figure is 234 to 236 °C.
The figure for `CC(=O)Nc1nccc(Oc2ccc3c(C(=O)Nc4cccc(C(F)(F)F)c4)cccc3c2)n1` [Example 18, 6-(2-Acetylamino-pyrimidin-4-yloxy)-naphthalene-1-carboxylic acid (3-trifluoromethyl-phenyl)-amide] is 216 to 217 °C; for `COC(=O)Nc1nccc(Oc2ccc3c(C(=O)Nc4cccc(C(F)(F)F)c4)cccc3c2)n1` [Example 19, 6-(2-Methoxycarbonylamino-pyrimidin-4-yloxy)-naphthalene-1-carboxylic acid (3-trifluoromethyl-phenyl)-amide] it is 199 to 200 °C; for `Nc1cc(Oc2ccc3c(C(=O)Nc4ccc(F)c(C(F)(F)F)c4)cccc3c2)ncn1` [Example 25, 6-(6-Amino-pyrimidin-4-yloxy)-naphthalene-1-carboxylic acid (4-fluoro-3-trifluoromethyl-phenyl)-amide] it is 224 to 225 °C.
The figure for `Nc1cc(Oc2ccc3c(C(=O)Nc4cccc(C(F)(F)F)c4)cccc3c2)ncn1` [Example 26, 6-(6-Amino-pyrimidin-4-yloxy)-naphthalene-1-carboxylic acid (3-trifluoromethyl-phenyl)-amide] is 243 to 244 °C; for `CNc1cc(Oc2ccc3c(C(=O)Nc4ccc(N5CCOCC5)c(C(F)(F)F)c4)cccc3c2)ncn1` [Example 40, 6-(6-Methylamino-pyrimidin-4-yloxy)-naphthalene-1-carboxylic acid (4-morpholin-4-yl-3-trifluoromethyl-phenyl)-amide] it is 156 to 157 °C; for `N#Cc1cc(Oc2ccc3c(C(=O)Nc4cccc(C(F)(F)F)c4)cccc3c2)ncn1` [Example 43, 6-(6-Cyano-pyrimidin-4-yloxy)-naphthalene-1-carboxylic acid (3-trifluoromethyl-phenyl)-amide] it is 167 °C.
Consider `CC(C)NC(=O)c1cc(Oc2ccc3c(C(=O)Nc4cccc(C(F)(F)F)c4)cccc3c2)ncn1` [Example 51, 6-[5-(3-Trifluoromethyl-phenylcarbamoyl)-naphthalen-2-yloxy]-pyrimidine-4-carboxylic acid isopropylamide], for which the melting point lay within 205 to 208 °C.
The figure for `O=C(Nc1cccc(C(F)(F)F)c1)c1cccc2cc(Oc3cc(CCl)ncn3)ccc12` [Example 53, 6-(6-Chloromethyl-pyrimidin-4-yloxy)-naphthalene-1-carboxylic acid (3-trifluoromethyl-phenyl)-amide] is 178 to 181 °C; for `CNCc1cc(Oc2ccc3c(C(=O)Nc4cccc(C(F)(F)F)c4)cccc3c2)ncn1` [Example 54, 6-(6-Methylaminomethyl-pyrimidin-4-yloxy)-naphthalene-1-carboxylic acid (3-trifluoromethyl-phenyl)-amide] it is 141 to 143 °C; for `CN(C)Cc1cc(Oc2ccc3c(C(=O)Nc4cccc(C(F)(F)F)c4)cccc3c2)ncn1` [Example 55, 6-(6-Dimethylaminomethyl-pyrimidin-4-yloxy)-naphthalene-1-carboxylic acid (3-trifluoromethyl-phenyl)-amide] it is 180 to 181 °C.
As for `Nc1cc(Sc2ccc3c(C(=O)Nc4ccc(F)c(C(F)(F)F)c4)cccc3c2)ncn1` [Example 57, 6-(6-Amino-pyrimidin-4-ylsulfanyl)-naphthalene-1-carboxylic acid (4-fluoro-3-trifluoromethyl-phenyl)-amide], the figure is 221 °C; as for `Nc1cc(Sc2ccc3c(C(=O)Nc4cccc(C(F)(F)F)c4)cccc3c2)ncn1` [Example 58, 6-(6-Amino-pyrimidin-4-ylsulfanyl)-naphthalene-1-carboxylic acid (3-trifluoromethyl-phenyl)-amide], 205 °C.
As for `Nc1cc(S(=O)(=O)c2ccc3c(C(=O)Nc4cccc(C(F)(F)F)c4)cccc3c2)ncn1` [Example 60, 6-(6-Amino-pyrimidine-4-sulfonyl)-naphthalene-1-carboxylic acid (3-trifluoromethyl-phenyl)-amide], the figure is 229 to 231 °C; as for `Nc1cc(Sc2ccc3c(C(=O)Nc4cccc(OC(F)(F)F)c4)cccc3c2)ncn1` [Example 61, 6-(6-Amino-pyrimidin-4-ylsulfanyl)-naphthalene-1-carboxylic acid (3-trifluoromethoxy-phenyl)-amide], 197 to 199 °C; as for `CCCCOC(=O)c1cc(Oc2ccc3c(C(=O)Nc4cccc(C(F)(F)F)c4)cccc3c2)ccn1` [Example 64, 4-[5-(3-Trifluoromethyl-phenylcarbamoyl)-naphthalen-2-yloxy]-pyridine-2-carboxylic acid butyl ester], 128 to 130 °C.
`CNC(=O)c1cc(Oc2ccc3c(C(=O)Nc4cccc(C(F)(F)F)c4)cccc3c2)ccn1` [Example 65, 4-[5-(3-Trifluoromethyl-phenylcarbamoyl)-naphthalen-2-yloxy]-pyridine-2-carboxylic acid methylamide] displayed a melting point of 175 to 177 °C.
For `NC(=O)c1cc(Oc2ccc3c(C(=O)Nc4cccc(C(F)(F)F)c4)cccc3c2)ccn1` [Example 66, 4-[5-(3-Trifluoromethyl-phenylcarbamoyl)-naphthalen-2-yloxy]-pyridine-2-carboxylic acid amide], the melting point is 117 to 120 °C.
The figure for `CN(C)CCNC(=O)c1cc(Oc2ccc3c(C(=O)Nc4cccc(C(F)(F)F)c4)cccc3c2)ccn1` [Example 67, 4-[5-(3-Trifluoromethyl-phenylcarbamoyl)-naphthalen-2-yloxy]-pyridine-2-carboxylic acid (2-dimethylamino-ethyl)-amide] is 80 to 82 °C; for `Nc1cc(Oc2ccc3c(C(=O)Nc4cccc(C(F)(F)F)c4)cccc3c2)ccn1` [Example 68, 6-(2-Amino-pyridin-4-yloxy)-naphthalene-1-carboxylic acid (3-trifluoromethyl-phenyl)-amide] it is 222 to 224 °C.
As for `COC(=O)Nc1cc(Oc2ccc3c(C(=O)Nc4cccc(C(F)(F)F)c4)cccc3c2)ccn1` [Example 69, {4-[5-(3-Trifluoromethyl-phenylcarbamoyl)-naphthalen-2-yloxy]-pyridin-2-yl}-carbamic acid methyl ester], the figure is 230 to 232 °C.
As for `Nc1nccc(CCc2ccc3c(C(=O)Nc4cccc(C(F)(F)F)c4)cccc3c2)n1` [Example 70, 6-[2-(2-Amino-pyrimidin-4-yl)-ethyl]-naphthalene-1-carboxylic acid (3-trifluoromethyl-phenyl)-amide], the figure is 225 to 227 °C.
`Nc1cc(C#Cc2ccc3c(C(=O)Nc4cccc(C(F)(F)F)c4)cccc3c2)ncn1` [Example 71, 6-(6-Amino-pyrimidin-4-ylethynyl)-naphthalene-1-carboxylic acid (3-trifluoromethyl-phenyl)-amide] showed a melting point of 217 to 220 °C.
`CC(C)c1ccc(-n2nc(C(C)(C)C)cc2NC(=O)c2cncc3cc(Oc4cc(N)ncn4)ccc23)cc1` [Example 93, 7-(6-Amino-pyrimidin-4-yloxy)-isoquinoline-4-carboxylic acid [5-tert-butyl-2-(4-isopropyl-phenyl)-2H-pyrazol-3-yl]-amide] had a melting point of 131 to 133 °C.
As for `CC(C)(C)c1cc(NC(=O)c2cncc3cc(Oc4cc(N)ncn4)ccc23)n(-c2ccc(F)cc2)n1` [Example 94, 7-(6-Amino-pyrimidin-4-yloxy)-isoquinoline-4-carboxylic acid [5-tert-butyl-2-(4-fluoro-phenyl)-2H-pyrazol-3-yl]-amide], the figure is 124 to 126 °C; as for `CNc1cc(Oc2ccc3c(C(=O)Nc4ccc(F)c(C(F)(F)F)c4)cncc3c2)ncn1` [Example 95, 7-(6-Methylamino-pyrimidin-4-yloxy)-isoquinoline-4-carboxylic acid (4-fluoro-3-trifluoromethyl-phenyl)-amide], 255 to 257 °C; as for `CNc1cc(Oc2ccc3c(C(=O)Nc4cccc(C(F)(F)F)c4)cncc3c2)ncn1` [Example 96, 7-(6-Methylamino-pyrimidin-4-yloxy)-isoquinoline-4-carboxylic acid (3-trifluoromethyl-phenyl)-amide], 205 to 208 °C.
